Where two headings read alike, the source gives them in different places. Bridge positions count the residues as written; N and C are the ends. Square brackets hold non-standard residues; d marks the D form. Peptide text beside a SMILES is read from it. * marks the point of attachment. Isonicotinoyl(2-Ph) = O=C(c1ccnc(-c2ccccc2)c1)*; X3 = O=C(c1ccnc(-c2cccc(Cl)c2)c1)*; X1 = CC[C@H](C)CCCCC(=O)*; dDap = NC[C@@H](N)C(=O)O; Dab = NCC[C@H](N)C(=O)O; Dap = NC[C@H](N)C(=O)O
Legend:
[1] = system: PA-1646, polymyxin-resistant clinical isolate of Pseudomonas aeruginosa; assay type: cell-based
Outline: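 Broth dilution MIC and bactericidal (MBC) testing per CLSI methods (M7-A8, M100-S20, M26-A) against polymyxin-resistant clinical P. aeruginosa isolate PA-1646. Compounds tested as trifluoroacetate salts, one as sulfate salt; values in mg/L.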

[2] = system: AB-1649, polymyxin-resistant clinical isolate of Acinetobacter baumannii; assay type: cell-based
Outline: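 Broth dilution MIC per CLSI against the polymyxin-resistant A. baumannii isolate, 2-fold dilutions, overnight incubation, visual read of lowest concentration inhibiting growth. Run in duplicate, lower value reported when within 2-fold; MBC per CLSI M26-A guideline.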

[3] = system: AB-3167, clinical isolate of Acinetobacter baumannii; assay type: cell-based
Outline: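 Broth dilution MIC per CLSI (M7-A8, M100-S20, M26-A for bactericidal), 2-fold dilution series, overnight incubation, visual read of lowest concentration inhibiting growth versus drug-free control. Duplicates run; lower value reported if within 2-fold, otherwise repeated. Compounds tested as trifluoroacetate salts; QC strains and reference compounds required in range.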

[4] = system: PA-1646, polymyxin-resistant clinical isolate of Pseudomonas aeruginosa; assay type: cell-based; remark: listed apart in the source
Outline: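 Broth dilution MIC per CLSI with 2-fold concentration steps, read visually after overnight incubation as lowest concentration inhibiting growth; duplicates within 2-fold, lower value reported, with QC strains and reference compounds. Compounds tested as trifluoroacetate salts, polymyxin B as sulfate.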

[5] = system: Pseudomonas aeruginosa strain PA01; assay type: cell-based
Outline: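 CLSI broth dilution against P. aeruginosa PA01 with two-fold concentration steps and overnight incubation; MIC is lowest concentration visibly inhibiting growth versus drug-free control, in mg/L. Compounds tested as trifluoroacetate salts, in duplicate, lower value reported if within 2-fold; control organisms and reference compounds included.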

[6] = system: AB-1649, polymyxin-resistant clinical isolate of Acinetobacter baumannii; assay type: cell-based; remark: listed apart in the source
Outline: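 MIC and MBC were measured by CLSI broth dilution methods (M7-A8, M100-S20, M26-A) against a polymyxin-resistant clinical isolate and reported in mg/L. Compounds were tested as trifluoroacetate salts, with one exception tested as the sulfate.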

[7] = system: KP-5016, ESBL+ clinical isolate of Klebsiella pneumoniae (SHV-5); test: Minimum inhibitory concentration (MIC, CLSI), KP-5016; assay type: cell-based; details: K. pneumoniae KP-5016; overnight incubation, lower of duplicate values; trifluoroacetate salt (Example 1 and PMB sulfate)
Method: (§1) Minimum bactericidal concentration (MBC, mg/L), minimum inhibitory concentration (MIC, mg/L), and human renal proximal tubule epithelial cell line cytotoxicity concentration 50% (hRPTEC, TC50, micromolar) for compounds of Formula I are listed in Table 2. The compounds of Formula I were tested as the corresponding trifluoroacetate salt except for Example 1 which was tested as the sulfate salt. For Table 2 below: PMB=polymyxin B as the sulfate salt (Bedford Laboratories, pharmaceutical grade); PMB1=polymyxin B1 as the trifluoroacetate salt; Nona=polymyxin B nonapeptide as the trifluoroacetate salt. PMB1 and Nona were prepared using the solid phase methodology described in the experimental section herein.
(§2) The in vitro antibacterial activity of compounds of Formula I was evaluated by MIC testing according to Clinical and Laboratory Standards Institute (CLSI). See: Clinical and Laboratory Standards Institute. Methods for Dilution Antimicrobial Susceptibility Tests for Bacteria that Grow Aerobically; Approved Standard-Eighth Edition. CLSI document M7-A8 [ISBN 1-56238-689-1]. Clinical and Laboratory Standards Institute, 940 West Valley Road, Suite 1400, Wayne, Pa. 19087-1898 USA, 2006; also Clinical and Laboratory Standards Institute. Performance Standards for Antimicrobial Susceptibility Testing; Twentieth Informational Supplement. CLSI document M100-S20 [ISBN 1-56238-716-2]. Clinical and Laboratory Standards Institute. Methods for Determining Bactericidal Activity of Antimicrobial Agents; Approved Guideline. CLSI document M26-A (ISBN 1-56238-384-1). CLSI, 940 West Valley Road, Suite 1400, Wayne, Pa. 19087-1898 USA, 1999.
(§3) The MIC determination is a standard laboratory method for evaluating the antibacterial activity of a compound. The MIC represents the lowest drug concentration that inhibits visible growth of bacteria following overnight incubation. […] Typically, the drug concentration range is broken down into 2-fold increments (e.g. 0.06 mg/L, 0.12 mg/L, 0.25 mg/L, 0.50 mg/L, 1.0 mg/L, etc.) and the various drug concentrations are all individually incubated overnight with approximately the same number of bacteria. The MIC is then determined by visually inspecting the drug effect at each concentration, and identifying the lowest drug concentration that has inhibited bacterial growth as compared to the drug free control. Typically, bacteria continue to grow at drug concentrations lower than the MIC and don't grow at concentrations at and above the MIC.
(§4) The MIC values described in Table 2 below were derived from assays wherein each test compound was evaluated in duplicate. In cases where the duplicate values varied by 0-2-fold, the lower of the two values was reported below. Generally speaking, if the duplicate values varied by more than 2-fold, the assay was considered non-valid and was repeated until the variation between duplicate runs was ≦2-fold. In line with the CLSI guidelines referred to above, both control organisms and reference compounds were utilized in each MIC assay to provide proper quality control. MIC values generated with these control organisms and reference compounds were required to fall within a defined range for the assay to be considered valid and be included herein. Those skilled in the art will recognize that MIC values can and do vary from experiment to experiment. Generally speaking, it should be recognized that MIC values often vary +/−2-fold from experiment to experiment. While a single MIC is reported for each compound and each microorganism, the reader should not conclude that each compound was only tested once. Several of the compounds were subjected to multiple tests. The data reported in Table 2 is reflective of the compounds relative activity and different MICs may have been generated on these occasions in line with the guidelines described above.
The following bacterial strains were used in these MIC determinations: […]

[8] = system: KP-3700, ESBL+ clinical isolate of Klebsiella pneumoniae; test: Minimum inhibitory concentration (MIC, CLSI), KP-3700; assay type: cell-based; details: K. pneumoniae KP-3700; overnight incubation, lower of duplicate values; trifluoroacetate salt (Example 1 and PMB sulfate)
Method: as §1, §2, §3, §4
The following bacterial strains were used in these MIC determinations:
KP-3700 is an ESBL+clinical isolate of Klebsiella pneumoniae obtained in 2006; and […]

[9] = system: EC-1, mouse virulent strain of Escherichia coli; assay type: cell-based; details: E. coli EC-1; overnight incubation, lower of duplicate values; trifluoroacetate salt (Example 1 and PMB sulfate)
Outline: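 Compounds were tested mostly as trifluoroacetate salts. Duplicate CLSI broth-dilution MICs were read visually after overnight incubation over 2-fold dilutions, with the lower of duplicates within 2-fold taken. QC organisms and reference drugs were included in each run.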

[10] = Cytotoxicity assay (LDH release), hRPTEC; assay type: cell-based, human; details: for CC50 at 24 h: human
Outline: (§5)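 hRPTEC grown 72 h in REGM, then exposed to compounds at 100, 67, 44, 30, 20 and 13 micromolar for 24 h at 37° C, 5% CO2. LDH released into supernatant measured; TC50 (micromolar) derived. Compounds tested as trifluoroacetate salts unless otherwise noted.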

[11] = system: Human Renal Proximal Tubule Epithelial cells (hRPTEC); test: Cytotoxicity assay (LDH release), hRPTEC; assay type: cell-based
Outline: as §5

[12] = A. baumannii AB-3167, overnight incubation, lower of duplicate values, trifluoroacetate salt (Example 1 and PMB sulfate)
[13] = PA-1646, polymyxin-resistant clinical isolate of
[14] = AB-1649, polymyxin-resistant clinical isolate of

Structure (SMILES) | PA-1646 MBC ([1]; P. aeruginosa PA-1646, tested as trifluoroacetate salt (Example 1 and PMB as sulfate salt)) [µg/mL] | AB-1649 MIC ([2]; A. baumannii AB-1649, overnight incubation, lower of duplicate values, trifluoroacetate salt (Example 1 and PMB sulfate)) [µg/mL] | AB-3167 MIC [3, 12] [µg/mL] | PA-1646 MIC ([4]; P. aeruginosa PA-1646, overnight incubation, lower of duplicate values, trifluoroacetate salt (Example 1 and PMB sulfate)) [µg/mL] | PA01 MIC ([5]; P. aeruginosa PA01, overnight incubation, lower of duplicate values, trifluoroacetate salt (Example 1 and PMB sulfate)) [µg/mL] | AB-1649 MBC ([6]; A. baumannii AB-1649, tested as trifluoroacetate salt (Example 1 and PMB as sulfate salt)) [µg/mL] | KP-5016 MIC [7] [µg/mL] | KP-3700 MIC [8] [µg/mL] | EC-1 MIC [9] [µg/mL] | CC50 at 24 h ([10]; hRPTEC, 24 hours treatment, LDH release, Toxic Concentration 50%, read-out: hRPTEC TC50) [µM] | PA-1646 MBC [1, 13] [µg/mL] | AB-1649 MIC [2, 14] [µg/mL] | AB-3167 MIC ([3]; AB-3167, clinical isolate of) [µg/mL] | PA-1646 MIC [4, 13] [µg/mL] | PA01 MIC ([5]; strain) [µg/mL] | AB-1649 MBC [6, 14] [µg/mL] | CC50 at 24 h [10] [µM] | reduced human renal cytotoxicity compared with PMB [11] | CC50 [10] [µM]
CC[C@H](C)CCCCC(=O)N[C@@H](CCN)C(=O)N[C@H](C(=O)N[C@@H](CCN)C(=O)N[C@H]1CCNC(=O)[C@H]([C@@H](C)O)NC(=O)[C@H](CCN)NC(=O)[C@H](CCN)NC(=O)[C@H](CC(C)C)NC(=O)[C@@H](Cc2ccccc2)NC(=O)[C@H](CCN)NC1=O)[C@@H](C)O [PMB1, polymyxin B1, reference compound] (X1-[Dab]T[Dab][Dab][Dab][dF]L[Dab][Dab]T; lactam 4-C) | 16 | 4 | 0.25 | 4 | 0.5 | 4 | 16 | 0.5 | 0.125 | 28 | – | – | – | – | – | – | – | – | –
CC(C)C[C@@H]1NC(=O)[C@@H](Cc2ccccc2)NC(=O)[C@H](CCN)NC(=O)[C@@H](NC(=O)[C@H](CN)NC(=O)[C@@H](NC(=O)[C@H](CCN)NC(=O)c2ccnc(-c3ccccc3)c2)[C@@H](C)O)CCNC(=O)[C@H]([C@@H](C)O)NC(=O)[C@H](CCN)NC(=O)[C@H](CCN)NC1=O [Example 1] ({Isonicotinoyl(2-Ph)}-[Dab]T[Dap][Dab][Dab][dF]L[Dab][Dab]T; lactam 4-C) | – | – | – | – | – | – | – | – | 0.125 | – | 4 | 1 | 0.25 | 2 | 0.25 | 1 | 95 | 4-5 fold | –
CC[C@H](C)[C@@H]1NC(=O)[C@@H](Cc2ccccc2)NC(=O)[C@H](CCN)NC(=O)[C@@H](NC(=O)[C@H](CN)NC(=O)[C@@H](NC(=O)[C@H](CCN)NC(=O)c2ccnc(-c3ccccc3)c2)[C@@H](C)O)CCNC(=O)[C@H]([C@@H](C)O)NC(=O)[C@H](CCN)NC(=O)[C@H](CCN)NC1=O [Example 49] ({Isonicotinoyl(2-Ph)}-[Dab]T[Dap][Dab][Dab][dF]I[Dab][Dab]T; lactam 4-C) | – | – | 0.125 | – | – | – | 16 | 0.25 | 0.125 | – | 8 | 0.25 | – | 4 | 0.5 | 0.25 | > 100 | – | –
CC(C)C[C@@H]1NC(=O)[C@@H](Cc2ccccc2)NC(=O)[C@H](CCN)NC(=O)[C@@H](NC(=O)[C@@H](CN)NC(=O)[C@@H](NC(=O)[C@H](CCN)NC(=O)c2ccnc(-c3ccccc3)c2)[C@@H](C)O)CCNC(=O)[C@H]([C@@H](C)O)NC(=O)[C@H](CCN)NC(=O)[C@H](CCN)NC1=O [Example 47] ({Isonicotinoyl(2-Ph)}-[Dab]T[dDap][Dab][Dab][dF]L[Dab][Dab]T; lactam 4-C) | – | – | – | – | – | – | 8 | 0.25 | 0.25 | – | 2 | 4 | 0.5 | 1 | 0.5 | 4 | 100 | – | –
CC(C)C[C@@H]1NC(=O)[C@@H](Cc2ccccc2)NC(=O)[C@H](CCN)NC(=O)[C@@H](NC(=O)[C@H](CCN)NC(=O)[C@@H](N)[C@@H](C)O)CCNC(=O)[C@H]([C@@H](C)O)NC(=O)[C@H](CCN)NC(=O)[C@H](CCN)NC1=O [Nona, polymyxin B nonapeptide, reference compound] (H-T[Dab][Dab][Dab][dF]L[Dab][Dab]T; lactam 3-C (inferred)) | – | – | – | – | – | – | >64 | >64 | >64 | – | >64 | >64 | >64 | >64 | >64 | >64 | – | – | > 100
CC[C@H](C)[C@@H]1NC(=O)[C@@H](Cc2ccccc2)NC(=O)[C@H](CCN)NC(=O)[C@@H](NC(=O)[C@H](CN)NC(=O)[C@@H](NC(=O)[C@H](CCN)NC(=O)c2ccnc(-c3cccc(Cl)c3)c2)[C@@H](C)O)CCNC(=O)[C@H]([C@@H](C)O)NC(=O)[C@H](CCN)NC(=O)[C@H](CCN)NC1=O [Example 48] (X3-[Dab]T[Dap][Dab][Dab][dF]I[Dab][Dab]T; lactam 4-C) | – | – | – | – | – | – | 32 | 0.25 | 0.25 | – | 2 | 0.5 | 0.25 | 1 | 0.5 | 0.5 | 33 | – | –

Source: patent publication US20120316105A1, “Polymyxin Derivates Useful As Antibacterial Agents” (priority 2011, published 2012)
